Experimental data reported in PubChem BioAssay (NCI).
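A five-concentration, 48-hour dose response in 96-well plates underlies each endpoint, interpolated linearly between surrounding concentrations. The concentration for 50% growth inhibition is given as GI50. TGI marks complete inhibition of growth.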 *1 amine or outer side, *2 acyl side, *3 side chain or, on linkers, in order; H or OH if unused. Where a SMILES comes first, the peptide text is derived from it. Bridges are numbered along the chain shown (N, C = ends). Roman numbers before positions name the chains, in order. [ ]: non-standard residue; d: D form. Actinocin(9to1) = Cc1c2oc3c(C)ccc(C(=O)[*:1])c3nc-2c(C(=O)[*:2])c(N)c1=O; NMeV = CN[CH](C(=O)O)C(C)C; Sar = CNCC(=O)O

Assays:
Assay in all cases: DTP human tumour cell line panel, 48 h
HCC-2998 colon = test system: HCC-2998 colon
HCT-116 colon = test system: HCT-116 colon
HL-60(TB) leukemia = test system: HL-60(TB) leukemia
HOP-92 NSCLC = test system: HOP-92 NSCLC
KM12 colon = test system: KM12 colon
SF-295 CNS = test system: SF-295 CNS
SK-MEL-5 melanoma = test system: SK-MEL-5 melanoma
SN12C renal = test system: SN12C renal
MDA-N = test system: MDA-N
SF-268 CNS = test system: SF-268 CNS

| SMILES | TGI (HCC-2998 colon) [µM] | TGI (HCT-116 colon) [µM] | TGI (HL-60(TB) leukemia) [µM] | TGI (HOP-92 NSCLC) [µM] | TGI (KM12 colon) [µM] | TGI (SF-295 CNS) [µM] | TGI (SK-MEL-5 melanoma) [µM] | TGI (SN12C renal) [µM] | TGI (MDA-N) [µM] | TGI (SF-268 CNS) [µM] | GI50 (HCT-116 colon) [µM] | GI50 (HOP-92 NSCLC) [µM] | GI50 (KM12 colon) [µM] | GI50 (SF-268 CNS) [µM] | GI50 (SF-295 CNS) [µM] | GI50 (SK-MEL-5 melanoma) [µM] | GI50 (SN12C renal) [µM] |
| --- | --- | --- | --- | --- | --- | --- | --- | --- | --- | --- | --- | --- | --- | --- | --- | --- | --- |
| N#C[C@H]1C(=O)C(c2nc3ccccc3[nH]2)S[C@H]1c1ccccc1 (some centres not stated) | > 100 | > 100 | > 100 | 67.3 | > 100 | 86.2 | > 100 | 91.3 |  |  |  |  |  |  |  |  |  |
| CC(=O)OCC1(CNc2nc(N)ncc2C#N)CC(CCc2ccccc2)C1 (configuration not stated) |  | > 100 | > 100 | 49.9 | > 100 | > 100 | 42.8 | > 100 | > 100 | > 100 |  |  |  |  |  |  |  |
| Cc1cccc(=O)c([O-])c1.Cc1cccc(=O)c([O-])c1.Cc1cccc(=O)c([O-])c1.Cc1cccc(=O)c([O-])c1.[Th+4] | > 100 | 35 | 4.18 | > 68.9 | > 72.7 | > 100 | 31.9 | > 100 |  | > 100 |  |  |  |  |  |  |  |
| Cc1ccc(S(=O)(=O)CC2CCCn3c2c(C#N)c2ccccc23)cc1 (configuration not stated) | > 100 | > 100 |  | > 100 | > 100 | > 100 | > 100 | > 100 |  | > 100 |  |  |  |  |  |  |  |
| C=C1C(=O)O[C@H]2[C@H]1CC/C(COC(=O)/C=C/C(=O)OC/C1=C/CC[C@@]3(C)O[C@H]3[C@H]3OC(=O)C(=C)[C@@H]3CC1)=C\CC[C@@]1(C)O[C@@H]21 |  | 0.756 |  | 1.8 | > 100 | > 100 | > 100 | 4.04 |  | > 100 | 0.253 | 0.549 | 5.19 | 3.19 | 6.77 | 4.34 | 1.49 |
| CCC(C)C(NC(=O)C1CCCN1)C(=O)NC(C(=O)NCC(=O)NC(CC(N)=O)C(=O)NC(CC(C)C)C(=O)NC(CC(C)C)C(=O)NC(CCCCN)C(N)=O)C(C)C (configuration not stated) (H-PIVGNLLK-NH2; configuration not given here) |  | > 75 | > 75 | > 75 | > 75 | > 75 | > 75 | > 75 | > 75 | > 75 |  |  |  |  |  |  |  |
| Oc1ccc(O)c(Sc2nnc(CCCCCCCCc3nnc(Sc4cc(O)ccc4O)o3)o2)c1 | > 100 | 32.5 |  | 65.7 | > 100 | > 100 | > 100 | > 100 | 32.9 | > 100 |  |  |  |  |  |  |  |
| NC(=O)CC[C@H]1C(=O)N=C(N)N1C(=O)OCc1ccccc1 | > 100 | > 100 | > 100 |  | > 100 | > 100 | > 100 | > 100 | > 100 | > 100 |  |  |  |  |  |  |  |
| O=C(O)Cn1ncn(NC(=O)Cc2ccccc2)c1=S | > 10 | > 10 |  | > 10 | > 10 | > 10 | > 10 | > 10 | > 10 | > 10 |  |  |  |  |  |  |  |
| Cc1cc(=O)[nH]c(NN2C(Cl)C(=O)C2c2ccco2)n1 (configuration not stated) | > 100 | > 100 | 39.3 | 69.8 | > 100 |  | > 100 | 77 |  | > 100 |  |  |  |  |  |  |  |
| O=C(NCCNCCO)N/N=C/c1ccccc1 |  | > 100 | > 100 |  | > 100 | > 100 | > 100 | > 100 |  | > 100 |  |  |  |  |  |  |  |
| COc1ccc(C[C@H]2COC(=O)[C@@H]2Cc2ccccc2)cc1OC |  | > 100 |  |  | > 100 | > 100 | > 100 | > 100 | > 100 |  |  |  |  |  |  |  |  |
| COc1ccc(OC)c(-c2cn3c(n2)sc2ccccc23)c1 |  | > 100 | > 100 | > 100 | > 100 | > 100 | > 100 | > 100 | > 100 | > 100 |  |  |  |  |  |  |  |
| Cc1cn(C2CC(SCCO)C(CO)O2)c(=O)[nH]c1=O (configuration not stated) | > 100 | > 100 | > 100 | > 100 | > 100 | > 100 |  | > 100 | > 100 | > 100 |  |  |  |  |  |  |  |
| CC(=O)c1cc(S(=O)(=O)c2ccc(O)c(C(C)=O)c2)ccc1O | > 100 | > 100 |  | > 100 | > 100 | > 100 | > 100 | > 100 | > 100 | > 100 |  |  |  |  |  |  |  |
| CCCCNC(=S)Nc1nc(C(=O)NNC(=S)NCc2ccccc2)cs1 | > 100 | > 100 |  |  | > 100 | > 100 | 70.2 | > 100 | > 100 | > 100 |  |  |  |  |  |  |  |
| c1ccc2c(c1)ccc1nc(-c3ccc4c(c3)OCO4)c3c(c12)CCC3 | > 100 | > 100 |  |  | > 100 | > 100 |  | > 100 | > 100 | > 100 |  |  |  |  |  |  |  |
| Cc1c2oc3c(C)ccc(C(=O)NC4C(=O)NC(Cc5ccc(O)cc5)C(=O)N5CCCC5C(=O)N(C)CC(=O)N(C)C(C(C)C)C(=O)OC4C)c3nc-2c(C(=O)NC2C(=O)NC(Cc3ccc(O)cc3)C(=O)N3CCCC3C(=O)N(C)CC(=O)N(C)C(C(C)C)C(=O)OC2C)c(N)c1=O (configuration not stated) (I: TYP[Sar][NMeV] / II: TYP[Sar][NMeV]; ester I:1-I:C, II:1-II:C; linker I:N-II:N via Actinocin(9to1); configuration not given here) | > 100 | > 100 | > 76.2 |  | > 100 | > 54.6 | > 86.1 | > 100 | > 100 | > 100 |  |  |  |  |  |  |  |
| O=C1/C(=C/C=C/c2ccccc2)CCC1CNc1ccc(Br)cc1 (configuration not stated) | > 100 | > 100 | > 100 | > 100 | > 100 | > 100 | > 100 | > 100 |  | > 100 |  |  |  |  |  |  |  |
| COCCN(C(=O)c1ccccc1)C1CCC(=O)c2[nH]c3ccccc3c21 (configuration not stated) | 31.8 | 26.5 | 58.8 | 25 | 21.9 | > 56.8 | 20.2 | 21.1 |  | 28.4 |  |  |  |  |  |  |  |
| CC(C)(C)C(=O)O[C@H]1C=C[C@@H](O)[C@@H]2[C@H]1[C@@H]1C=C[C@H]2C1 | 32.4 | > 100 | 33.8 | > 100 | 12.4 | > 100 |  | 41 | > 100 | > 100 |  |  |  |  |  |  |  |
| CC1Cc2c(cc(N)nc2Br)NC1=O (configuration not stated) | > 100 | > 100 |  | > 100 | > 100 | > 100 | > 100 | > 100 | > 100 | > 100 |  |  |  |  |  |  |  |
